Test results published in the kinase profiling compilation of Christmann-Franck et al. (2016).

How the values were obtained:
Test in all cases: KINOMEscan competition binding
Conditions in all cases: compound 2.0 µM
BRSK2 (human) = BRSK2 (human) (UniProt Q8IWQ3)
CDC2L2 (human) = CDC2L2 (human) (UniProt Q9UQ88)
AURKA (human) = AURKA (human) (UniProt O14965)
PHKG1 (human) = PHKG1 (human) (UniProt Q16816)
MST1R (human) = MST1R (human) (UniProt Q04912)
PTK2B (human) = PTK2B (human) (UniProt Q14289)
DYRK2 (human) = DYRK2 (human) (UniProt Q92630)
[1] = test system: KIT (human), P10721 [D816H]
KIT (human), P10721 [D816H], sequence (P10721 whole entry D816H, looked up): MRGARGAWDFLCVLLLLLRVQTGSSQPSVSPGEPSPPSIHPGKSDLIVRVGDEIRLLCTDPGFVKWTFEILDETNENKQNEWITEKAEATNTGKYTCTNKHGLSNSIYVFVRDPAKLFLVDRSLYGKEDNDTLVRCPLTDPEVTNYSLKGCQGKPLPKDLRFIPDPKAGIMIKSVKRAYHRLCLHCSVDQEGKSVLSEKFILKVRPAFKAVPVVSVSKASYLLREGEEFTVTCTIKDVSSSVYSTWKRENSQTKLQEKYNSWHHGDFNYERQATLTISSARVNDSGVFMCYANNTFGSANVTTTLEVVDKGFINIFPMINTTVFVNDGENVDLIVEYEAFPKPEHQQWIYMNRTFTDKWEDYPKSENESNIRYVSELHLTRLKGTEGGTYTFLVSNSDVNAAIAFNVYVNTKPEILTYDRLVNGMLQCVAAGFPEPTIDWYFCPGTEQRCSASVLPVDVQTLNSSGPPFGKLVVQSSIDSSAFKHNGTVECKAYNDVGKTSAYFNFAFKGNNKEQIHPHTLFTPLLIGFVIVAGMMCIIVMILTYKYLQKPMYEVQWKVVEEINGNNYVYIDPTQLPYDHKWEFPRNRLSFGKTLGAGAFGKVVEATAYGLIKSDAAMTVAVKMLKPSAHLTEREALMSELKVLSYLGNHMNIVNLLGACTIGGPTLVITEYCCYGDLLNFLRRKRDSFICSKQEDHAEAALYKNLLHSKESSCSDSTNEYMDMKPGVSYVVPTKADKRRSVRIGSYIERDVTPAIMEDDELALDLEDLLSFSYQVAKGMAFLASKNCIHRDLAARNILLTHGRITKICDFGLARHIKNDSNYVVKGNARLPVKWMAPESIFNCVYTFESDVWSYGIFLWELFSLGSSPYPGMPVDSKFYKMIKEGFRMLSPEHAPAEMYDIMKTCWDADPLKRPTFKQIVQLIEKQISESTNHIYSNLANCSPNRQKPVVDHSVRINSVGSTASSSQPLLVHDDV

DCLK1 (human) = DCLK1 (human) (UniProt O15075)
KIT (human) = KIT (human) (UniProt P10721)
KIT (human), sequence (P10721 whole entry, looked up): as the sequence (P10721 whole entry D816H, looked up) above, with H816D counted along it

CRK2 (P.falciparum) = CRK2 (P.falciparum) (UniProt P61075)
CRK2 (P.falciparum), sequence (P61075 whole entry, looked up): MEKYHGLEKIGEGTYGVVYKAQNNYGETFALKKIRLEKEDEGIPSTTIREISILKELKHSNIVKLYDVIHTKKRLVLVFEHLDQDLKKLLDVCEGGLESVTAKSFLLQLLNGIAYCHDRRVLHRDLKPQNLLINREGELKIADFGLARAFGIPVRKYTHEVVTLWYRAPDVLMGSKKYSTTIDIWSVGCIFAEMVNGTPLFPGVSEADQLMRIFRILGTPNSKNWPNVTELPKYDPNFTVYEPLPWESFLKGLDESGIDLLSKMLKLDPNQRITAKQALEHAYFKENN

[2] = test system: EGFR (human), P00533 [T790M]
EPHB1 (human) = EPHB1 (human) (UniProt P54762)
IKBKE (human) = IKBKE (human) (UniProt Q14164)
IKBKE (human), sequence (Q14164 whole entry, looked up): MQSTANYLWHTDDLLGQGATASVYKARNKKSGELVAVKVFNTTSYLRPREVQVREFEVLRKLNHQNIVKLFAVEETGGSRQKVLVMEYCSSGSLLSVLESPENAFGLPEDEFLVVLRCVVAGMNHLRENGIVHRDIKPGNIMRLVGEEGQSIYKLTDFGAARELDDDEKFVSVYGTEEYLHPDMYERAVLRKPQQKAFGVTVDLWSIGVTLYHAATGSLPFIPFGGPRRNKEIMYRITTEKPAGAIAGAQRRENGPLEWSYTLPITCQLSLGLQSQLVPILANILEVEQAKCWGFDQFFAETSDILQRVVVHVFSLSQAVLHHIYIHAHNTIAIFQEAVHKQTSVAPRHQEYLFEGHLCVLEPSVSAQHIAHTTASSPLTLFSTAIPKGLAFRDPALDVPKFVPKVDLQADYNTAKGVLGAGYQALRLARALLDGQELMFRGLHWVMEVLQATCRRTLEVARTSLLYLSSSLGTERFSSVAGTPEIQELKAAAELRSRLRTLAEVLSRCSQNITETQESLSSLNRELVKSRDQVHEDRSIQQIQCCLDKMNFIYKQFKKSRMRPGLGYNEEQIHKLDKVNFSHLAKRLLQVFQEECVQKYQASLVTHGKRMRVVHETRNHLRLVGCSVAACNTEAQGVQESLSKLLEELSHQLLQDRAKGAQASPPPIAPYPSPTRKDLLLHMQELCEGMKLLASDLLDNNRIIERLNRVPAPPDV

SIK2 (human) = SIK2 (human) (UniProt Q9H0K1)
SIK2 (human), sequence (Q9H0K1 whole entry, looked up): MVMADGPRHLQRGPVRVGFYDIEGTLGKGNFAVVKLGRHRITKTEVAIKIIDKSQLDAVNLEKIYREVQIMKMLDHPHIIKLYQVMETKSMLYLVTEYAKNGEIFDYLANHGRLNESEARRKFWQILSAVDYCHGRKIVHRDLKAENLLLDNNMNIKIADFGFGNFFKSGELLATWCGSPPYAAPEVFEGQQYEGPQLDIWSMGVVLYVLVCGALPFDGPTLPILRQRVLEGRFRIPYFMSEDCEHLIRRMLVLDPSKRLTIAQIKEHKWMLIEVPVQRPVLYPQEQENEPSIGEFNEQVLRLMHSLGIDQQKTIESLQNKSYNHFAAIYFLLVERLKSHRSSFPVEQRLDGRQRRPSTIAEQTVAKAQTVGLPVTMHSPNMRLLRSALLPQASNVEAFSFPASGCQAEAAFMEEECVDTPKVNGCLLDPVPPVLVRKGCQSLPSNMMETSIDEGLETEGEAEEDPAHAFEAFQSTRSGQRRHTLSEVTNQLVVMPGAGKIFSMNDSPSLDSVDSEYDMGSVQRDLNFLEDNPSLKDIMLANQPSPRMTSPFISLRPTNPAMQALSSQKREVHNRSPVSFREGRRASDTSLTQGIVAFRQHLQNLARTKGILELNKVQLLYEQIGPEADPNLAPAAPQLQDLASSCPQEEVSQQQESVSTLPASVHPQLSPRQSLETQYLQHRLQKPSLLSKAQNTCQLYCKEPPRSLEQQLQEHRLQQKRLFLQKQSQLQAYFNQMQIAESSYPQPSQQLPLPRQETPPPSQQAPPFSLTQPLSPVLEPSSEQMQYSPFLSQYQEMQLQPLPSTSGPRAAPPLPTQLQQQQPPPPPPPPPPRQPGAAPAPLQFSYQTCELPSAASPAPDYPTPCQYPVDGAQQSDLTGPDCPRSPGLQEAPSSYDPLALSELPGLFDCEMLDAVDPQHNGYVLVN

MARK2 (human) = MARK2 (human) (UniProt Q7KZI7)
FRK (human) = FRK (human) (UniProt P42685)
EPHA1 (human) = EPHA1 (human) (UniProt P21709)
RPS6KB1 (human) = RPS6KB1 (human) (UniProt P23443)
RPS6KB1 (human), sequence (P23443 whole entry, looked up): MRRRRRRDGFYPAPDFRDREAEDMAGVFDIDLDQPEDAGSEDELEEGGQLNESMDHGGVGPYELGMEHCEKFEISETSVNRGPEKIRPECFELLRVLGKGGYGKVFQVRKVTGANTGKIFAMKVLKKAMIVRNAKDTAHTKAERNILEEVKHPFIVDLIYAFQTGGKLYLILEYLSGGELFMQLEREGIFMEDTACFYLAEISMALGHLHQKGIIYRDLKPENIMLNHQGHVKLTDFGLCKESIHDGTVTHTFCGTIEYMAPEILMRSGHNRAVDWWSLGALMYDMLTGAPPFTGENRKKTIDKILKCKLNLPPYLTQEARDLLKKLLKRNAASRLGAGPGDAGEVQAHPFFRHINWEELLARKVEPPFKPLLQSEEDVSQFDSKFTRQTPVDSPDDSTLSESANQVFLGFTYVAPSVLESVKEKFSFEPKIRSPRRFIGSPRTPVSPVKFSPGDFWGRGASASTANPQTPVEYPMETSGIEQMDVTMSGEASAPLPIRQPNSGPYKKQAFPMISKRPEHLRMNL

[3] = test system: KIT (human), P10721 [V559D/V654A]
KIT (human), P10721 [V559D/V654A], sequence (P10721 whole entry V559D/V654A, looked up): as the sequence (P10721 whole entry D816H, looked up) above, with V559D, V654A, H816D counted along it

STK17A (human) = STK17A (human) (UniProt Q9UEE5)
[4] = test system: ABL1 (human), P00519 [M351T]
RPS6KA4 KD2 (human) = RPS6KA4 KD2 (human) (UniProt O75676)
MYLK4 (human) = MYLK4 (human) (UniProt Q86YV6)
MYLK4 (human), sequence (Q86YV6 whole entry, looked up): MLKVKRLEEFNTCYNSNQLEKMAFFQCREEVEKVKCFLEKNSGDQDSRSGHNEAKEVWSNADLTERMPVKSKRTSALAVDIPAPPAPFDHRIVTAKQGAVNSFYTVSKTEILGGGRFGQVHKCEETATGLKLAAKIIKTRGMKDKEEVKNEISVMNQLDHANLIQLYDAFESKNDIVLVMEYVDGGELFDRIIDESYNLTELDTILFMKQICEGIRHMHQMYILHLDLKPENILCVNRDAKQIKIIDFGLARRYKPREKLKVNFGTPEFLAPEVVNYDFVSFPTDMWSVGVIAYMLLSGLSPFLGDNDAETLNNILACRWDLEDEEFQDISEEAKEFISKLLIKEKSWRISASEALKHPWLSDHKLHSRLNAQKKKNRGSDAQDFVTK

MARK3 (human) = MARK3 (human) (UniProt P27448)
MARK3 (human), sequence (P27448 whole entry, looked up): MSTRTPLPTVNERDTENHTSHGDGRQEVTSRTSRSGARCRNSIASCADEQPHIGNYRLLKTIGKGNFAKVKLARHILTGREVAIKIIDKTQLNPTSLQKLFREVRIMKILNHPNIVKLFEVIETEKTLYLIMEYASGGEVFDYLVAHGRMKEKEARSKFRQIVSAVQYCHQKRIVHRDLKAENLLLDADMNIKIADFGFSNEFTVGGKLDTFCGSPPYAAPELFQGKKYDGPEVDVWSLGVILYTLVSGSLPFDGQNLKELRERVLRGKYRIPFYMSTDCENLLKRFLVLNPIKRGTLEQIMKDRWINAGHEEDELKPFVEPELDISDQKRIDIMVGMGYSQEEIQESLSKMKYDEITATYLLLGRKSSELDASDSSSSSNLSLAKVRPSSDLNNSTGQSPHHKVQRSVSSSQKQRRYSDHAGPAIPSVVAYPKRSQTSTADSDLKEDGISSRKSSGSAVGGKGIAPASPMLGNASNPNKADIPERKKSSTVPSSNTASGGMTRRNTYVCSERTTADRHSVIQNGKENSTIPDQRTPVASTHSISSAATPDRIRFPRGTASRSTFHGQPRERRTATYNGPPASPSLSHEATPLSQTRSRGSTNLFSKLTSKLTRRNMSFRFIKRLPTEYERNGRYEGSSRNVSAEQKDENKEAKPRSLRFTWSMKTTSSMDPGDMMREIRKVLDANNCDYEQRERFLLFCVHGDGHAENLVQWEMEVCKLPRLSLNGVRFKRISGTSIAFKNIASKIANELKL

RPS6KA6 KD1 (human) = RPS6KA6 KD1 (human) (UniProt Q9UK32)
CDKL1 (human) = CDKL1 (human) (UniProt Q00532)
CAMK1D (human) = CAMK1D (human) (UniProt Q8IU85)
CAMK1D (human), sequence (Q8IU85 whole entry, looked up): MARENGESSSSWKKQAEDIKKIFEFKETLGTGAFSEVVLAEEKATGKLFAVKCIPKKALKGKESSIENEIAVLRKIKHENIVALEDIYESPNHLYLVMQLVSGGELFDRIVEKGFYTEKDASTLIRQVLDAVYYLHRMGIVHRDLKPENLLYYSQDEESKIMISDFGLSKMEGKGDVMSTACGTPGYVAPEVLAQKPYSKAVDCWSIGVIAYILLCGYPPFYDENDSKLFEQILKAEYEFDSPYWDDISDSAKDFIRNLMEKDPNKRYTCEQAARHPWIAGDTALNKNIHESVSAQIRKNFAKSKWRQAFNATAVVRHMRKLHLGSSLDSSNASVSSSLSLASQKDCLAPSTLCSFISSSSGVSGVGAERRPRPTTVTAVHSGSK

[5] = test system: RET (human), P07949 [V804M]
CSK (human) = CSK (human) (UniProt P41240)
AKT2 (human) = AKT2 (human) (UniProt P31751)
SIK1 (human) = SIK1 (human) (UniProt P57059)
ITK (human) = ITK (human) (UniProt Q08881)
MAP3K3 (human) = MAP3K3 (human) (UniProt Q99759)
FER (human) = FER (human) (UniProt P16591)
DAPK1 (human) = DAPK1 (human) (UniProt P53355)
YSK4 (human) = YSK4 (human) (UniProt Q56UN5)
CDK8 (human) = CDK8 (human) (UniProt P49336)
PRKAA2 (human) = PRKAA2 (human) (UniProt P54646)
MAPK8 (human) = MAPK8 (human) (UniProt P45983)
CAMKK2 (human) = CAMKK2 (human) (UniProt Q96RR4)
PRKAA1 (human) = PRKAA1 (human) (UniProt Q13131)
TGFBR2 (human) = TGFBR2 (human) (UniProt P37173)

N#Cc1ccc2ncnc(NCCc3ccc4ccccc4c3)c2c1
kinase still bound, per cent of control (BRSK2 (human)): 100% | kinase still bound, per cent of control (CDC2L2 (human)): 100% | kinase still bound, per cent of control (AURKA (human)): 94% | kinase still bound, per cent of control (PHKG1 (human)): 100% | kinase still bound, per cent of control (MST1R (human)): 100% | kinase still bound, per cent of control (PTK2B (human)): 85% | kinase still bound, per cent of control (DYRK2 (human)): 85% | kinase still bound, per cent of control [1]: 100% | kinase still bound, per cent of control (DCLK1 (human)): 89% | kinase still bound, per cent of control (KIT (human)): 97% | kinase still bound, per cent of control (CRK2 (P.falciparum)): 100% | kinase still bound, per cent of control [2]: 100% | kinase still bound, per cent of control (EPHB1 (human)): 87% | kinase still bound, per cent of control (IKBKE (human)): 100% | kinase still bound, per cent of control (SIK2 (human)): 100% | kinase still bound, per cent of control (MARK2 (human)): 94% | kinase still bound, per cent of control (FRK (human)): 100% | kinase still bound, per cent of control (EPHA1 (human)): 89% | kinase still bound, per cent of control (RPS6KB1 (human)): 97% | kinase still bound, per cent of control [3]: 100% | kinase still bound, per cent of control (STK17A (human)): 100% | kinase still bound, per cent of control [4]: 100% | kinase still bound, per cent of control (RPS6KA4 KD2 (human)): 90% | kinase still bound, per cent of control (MYLK4 (human)): 81% | kinase still bound, per cent of control (MARK3 (human)): 95% | kinase still bound, per cent of control (RPS6KA6 KD1 (human)): 100% | kinase still bound, per cent of control (CDKL1 (human)): 100% | kinase still bound, per cent of control (CAMK1D (human)): 100% | kinase still bound, per cent of control [5]: 100% | kinase still bound, per cent of control (CSK (human)): 100% | kinase still bound, per cent of control (AKT2 (human)): 100% | kinase still bound, per cent of control (SIK1 (human)): 100% | kinase still bound, per cent of control (ITK (human)): 80% | kinase still bound, per cent of control (MAP3K3 (human)): 100% | kinase still bound, per cent of control (FER (human)): 100% | kinase still bound, per cent of control (DAPK1 (human)): 89% | kinase still bound, per cent of control (YSK4 (human)): 86% | kinase still bound, per cent of control (CDK8 (human)): 8.7% | kinase still bound, per cent of control (PRKAA2 (human)): 80% | kinase still bound, per cent of control (MAPK8 (human)): 100% | kinase still bound, per cent of control (CAMKK2 (human)): 100% | kinase still bound, per cent of control (PRKAA1 (human)): 89% | kinase still bound, per cent of control (TGFBR2 (human)): 92%
